Data from patent US6737383B1, “Herbicidal oxadiazolidines” (priority 1999, dated 2004).

Key:
[1] = tested on: surinam grass; experiment: Test B pre/postemergence surinam grass; format: in vivo, Brachiaria decumbens
Procedure, shortened: (§1)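 Test chemicals in a non-phytotoxic solvent mixture with surfactant were sprayed preemergence onto planted seeds and postemergence onto plants 2 to 18 cm tall (1- to 4-leaf stage). After twelve to sixteen days in a greenhouse, injury was visually rated against untreated controls from 0 (no effect) to 10 (complete control).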

[2] = tested on: cocklebur; experiment: Test B pre/postemergence cocklebur; format: in vivo, Xanthium strumarium; conditions: for Cocklebur plant response rating: scale of 0 to 10 where 0 is no effect and 10 is complete control
Procedure, shortened: as §1

[3] = tested on: blackgrass; experiment: Test B pre/postemergence blackgrass; format: in vivo, Alopecurus myosuroides
Procedure, shortened: as §1

[4] = tested on: bamyardgrass; experiment: Test B flood test barnyardgrass; format: in vivo, Echinochloa crus-galli
Procedure, shortened: (§2)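 Flood test on plants grown to the 2-leaf stage; treated plants kept in greenhouse twelve to sixteen days, then visually rated against controls on a 0 (no effect) to 10 (complete control) scale.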

[5] = tested on: duck salad; experiment: Test B flood test duck salad; format: in vivo, Heteranthera limosa
Procedure, shortened: as §2

[6] = tested on: rice; experiment: Test B flood test rice; format: in vivo, Oryza sativa
Procedure, shortened: as §2

[7] = tested on: giant foxtail; experiment: Test B pre/postemergence giant foxtail; format: in vivo, Setaria faberii; conditions: for Giant foxtail plant response rating: scale of 0 to 10 where 0 is no effect and 10 is complete control
Procedure, shortened: as §1

[8] = tested on: pigweed; experiment: Test B pre/postemergence pigweed; format: in vivo, Amaranthus retroflexus; conditions: for Redroot pigweed plant response rating: scale of 0 to 10 where 0 is no effect and 10 is complete control
Procedure, shortened: as §1

[9] = tested on: purple nutsedge; experiment: Test B pre/postemergence purple nutsedge; format: in vivo, Cyperus rotundus; conditions: for Nutsedge plant response rating: scale of 0 to 10 where 0 is no effect and 10 is complete control
Procedure, shortened: as §1

[10] = tested on: rape; experiment: Test B pre/postemergence rape; format: in vivo, Brassica napus; conditions: for Rape plant response rating: scale of 0 to 10 where 0 is no effect and 10 is complete control
Procedure, shortened: as §1

[11] = tested on: corn; experiment: Test B pre/postemergence corn; format: in vivo, Zea mays; conditions: for Corn plant response rating: scale of 0 to 10 where 0 is no effect and 10 is complete control
Procedure, shortened: as §1

[12] = tested on: wheat; experiment: Test B pre/postemergence wheat; format: in vivo, Triticum aestivum; conditions: for Wheat plant response rating: scale of 0 to 10 where 0 is no effect and 10 is complete control
Procedure, shortened: as §1

[13] = tested on: soybean; experiment: Test B pre/postemergence soybean; format: in vivo, Glycine max; conditions: for Soybean plant response rating: scale of 0 to 10 where 0 is no effect and 10 is complete control
Procedure, shortened: as §1

[14] = tested on: sugar beet; experiment: Test B pre/postemergence sugar beet; format: in vivo, Beta vulgaris; conditions: for Sugarbeets plant response rating: scale of 0 to 10 where 0 is no effect and 10 is complete control
Procedure, shortened: as §1

[15] = tested on: crabgrass; experiment: Test B pre/postemergence crabgrass; format: in vivo, Digitaria sanguinalis; conditions: for Crabgrass plant response rating: scale of 0 to 10 where 0 is no effect and 10 is complete control
Procedure, shortened: as §1

[16] = tested on: smallflower flatsedge; experiment: Test B flood test smallflower flatsedge; format: in vivo, Cyperus difformis
Procedure, shortened: as §2

[17] = Postemergence, Rate 125 g/ha, scale 0 to 10, 0 is no effect, 10 is complete control
[18] = Preemergence, Rate 62 g/ha, scale 0 to 10 (0 no effect, 10 complete control)
[19] = Preemergence, Rate 250 g/ha, scale of 0 to 10 where 0 is no effect and 10 is complete control
[20] = Preemergence, Rate 500 g/ha, scale of 0 to 10 where 0 is no effect and 10 is complete control
[21] = Rate 62 g/ha, Postemergence, scale of 0 to 10 where 0 is no effect and 10 is complete control
[22] = Rate 250 g/ha, Postemergence, scale of 0 to 10 where 0 is no effect and 10 is complete control
[23] = Rate 500 g/ha, Postemergence, scale 0 to 10, 0 no effect, 10 complete control
[24] = Postemergence (flood test), Rate 125 g/ha, scale 0 to 10, 0 is no effect, 10 is complete control
[25] = Rate 62 g/ha, Postemergence (flood test species), scale of 0 to 10 where 0 is no effect and 10 is complete control
[26] = Rate 500 g/ha, listed under Postemergence (flood test species), scale 0 to 10, 0 no effect, 10 complete control

With `CC(C)N(C(=O)n1oc(=O)n(C2CCCCCC2)c1=O)c1ccc(F)cc1F` [Compound 342] the “Plant response rating, B. signalgrass” value [1, 17] was 0, the “Plant response rating, B. signalgrass” value [1, 18] was 0 and the “B. signalgrass plant response rating (0 to 10 scale, 0 is no effect, 10 is complete control)” value ([1]; Preemergence, Rate 125 g/ha) was 0. The “B. signalgrass plant response rating” value [1, 19] was 2, the “B. signalgrass plant response rating” value [1, 20] was 6 and the “B. signalgrass plant response rating” value [1, 21] was 0. The “Plant response rating, B. signalgrass” value [1, 22] was 0, the “Plant response rating, B. signalgrass” value [1, 23] was 1 and the “Plant response rating, Cocklebur” value [2, 17] was 0. The “Plant response rating, Cocklebur” value [2, 18] was 0, the “Cocklebur plant response rating (0 to 10 scale)” value ([2]; Preemergence, Rate 125 g/ha) was 0 and the “Cocklebur plant response rating” value ([2]; Preemergence, Rate 500 g/ha) was 0. For the same compound, the “Cocklebur plant response rating” value ([2]; Rate 62 g/ha, Postemergence) was 0, the “Plant response rating, Cocklebur” value [2, 23] was 0 and the “Plant response rating, Blackgrass” value [3, 17] was 0. The “Plant response rating, Blackgrass” value [3, 18] was 0, the “Blackgrass plant response rating (0 to 10 scale)” value ([3]; Preemergence, Rate 125 g/ha) was 3 and the “Blackgrass plant response rating” value [3, 19] was 3. For the same compound, the “Blackgrass plant response rating” value [3, 20] was 7, the “Blackgrass plant response rating” value [3, 21] was 0 and the “Plant response rating, Blackgrass” value [3, 22] was 2. For the same compound, the “Plant response rating, Blackgrass” value [3, 23] was 4, the “Plant response rating, Barnyardgrass” value [4, 24] was 2 and the “Barnyardgrass plant response rating” value [4, 25] was 0. The “Plant response rating, Barnyardgrass” value ([4]; Rate 250 g/ha, Postemergence (flood test species), scale of 0 to 10 where 0 is no effect and 10 is complete control) was 9, the “Plant response rating, Barnyardgrass” value [4, 26] was 9 and the “Plant response rating, Ducksalad” value [5, 24] was 0. For the same compound, the “Ducksalad plant response rating” value [5, 25] was 0, the “Plant response rating, Ducksalad” value [5, 26] was 4 and the “Plant response rating, Rice” value [6, 24] was 0. The “Rice plant response rating” value [6, 25] was 0, the “Plant response rating, Rice” value [6, 26] was 0 and the “Plant response rating, Giant foxtail” value [7, 17] was 0. For the same compound, the “Plant response rating, Giant foxtail” value [7, 18] was 8, the “Giant foxtail plant response rating (0 to 10 scale)” value ([7]; Preemergence, Rate 125 g/ha) was 9 and the “Giant foxtail plant response rating” value ([7]; Preemergence, Rate 250 g/ha) was 10. The “Giant foxtail plant response rating” value ([7]; Preemergence, Rate 500 g/ha) was 10, the “Giant foxtail plant response rating” value ([7]; Rate 62 g/ha, Postemergence) was 0 and the “Plant response rating, Giant foxtail” value [7, 23] was 7. For the same compound, the “Plant response rating, Redroot pigweed” value [8, 17] was 2, the “Plant response rating, Redroot pigweed” value [8, 18] was 0 and the “Redroot pigweed plant response rating (0 to 10 scale)” value ([8]; Preemergence, Rate 125 g/ha) was 0. For the same compound, the “Redroot pigweed plant response rating” value ([8]; Preemergence, Rate 250 g/ha) was 0, the “Redroot pigweed plant response rating” value ([8]; Preemergence, Rate 500 g/ha) was 0 and the “Redroot pigweed plant response rating” value ([8]; Rate 62 g/ha, Postemergence) was 2. For the same compound, the “Plant response rating, Redroot pigweed” value [8, 23] was 8, the “Plant response rating, Nutsedge” value [9, 17] was 0 and the “Plant response rating, Nutsedge” value [9, 18] was 0. The “Nutsedge plant response rating (0 to 10 scale)” value ([9]; Preemergence, Rate 125 g/ha) was 0, the “Nutsedge plant response rating” value ([9]; Preemergence, Rate 250 g/ha) was 0 and the “Nutsedge plant response rating” value ([9]; Preemergence, Rate 500 g/ha) was 0. For the same compound, the “Nutsedge plant response rating” value ([9]; Rate 62 g/ha, Postemergence) was 0, the “Plant response rating, Nutsedge” value [9, 23] was 0 and the “Plant response rating, Rape” value [10, 17] was 0. The “Plant response rating, Rape” value [10, 18] was 0, the “Rape plant response rating (0 to 10 scale)” value ([10]; Preemergence, Rate 125 g/ha) was 0 and the “Rape plant response rating” value ([10]; Preemergence, Rate 250 g/ha) was 0. The “Rape plant response rating” value ([10]; Preemergence, Rate 500 g/ha) was 0, the “Rape plant response rating” value ([10]; Rate 62 g/ha, Postemergence) was 0 and the “Plant response rating, Rape” value [10, 23] was 4. The “Plant response rating, Corn” value [11, 17] was 0, the “Plant response rating, Corn” value [11, 18] was 0 and the “Corn plant response rating (0 to 10 scale)” value ([11]; Preemergence, Rate 125 g/ha) was 0. The “Corn plant response rating” value ([11]; Preemergence, Rate 250 g/ha) was 0, the “Corn plant response rating” value ([11]; Preemergence, Rate 500 g/ha) was 0 and the “Corn plant response rating” value ([11]; Rate 62 g/ha, Postemergence) was 0. For the same compound, the “Plant response rating, Corn” value [11, 23] was 0, the “Plant response rating, Wheat” value [12, 17] was 0 and the “Plant response rating, Wheat” value [12, 18] was 0. The “Wheat plant response rating (0 to 10 scale)” value ([12]; Preemergence, Rate 125 g/ha) was 0, the “Wheat plant response rating” value ([12]; Preemergence, Rate 250 g/ha) was 0 and the “Wheat plant response rating” value ([12]; Preemergence, Rate 500 g/ha) was 3. For the same compound, the “Wheat plant response rating” value ([12]; Rate 62 g/ha, Postemergence) was 0, the “Plant response rating, Wheat” value [12, 23] was 0 and the “Plant response rating, Soybean” value [13, 17] was 5. For the same compound, the “Plant response rating, Soybean” value [13, 18] was 0, the “Soybean plant response rating (0 to 10 scale)” value ([13]; Preemergence, Rate 125 g/ha) was 0 and the “Soybean plant response rating” value ([13]; Preemergence, Rate 250 g/ha) was 0. The “Soybean plant response rating” value ([13]; Preemergence, Rate 500 g/ha) was 0, the “Soybean plant response rating” value ([13]; Rate 62 g/ha, Postemergence) was 3 and the “Plant response rating, Soybean” value [13, 23] was 7. The “Plant response rating, Sugarbeets” value [14, 17] was 0, the “Plant response rating, Sugarbeets” value [14, 18] was 0 and the “Sugarbeets plant response rating (0 to 10 scale)” value ([14]; Preemergence, Rate 125 g/ha) was 0. The “Sugarbeets plant response rating” value ([14]; Preemergence, Rate 250 g/ha) was 0, the “Sugarbeets plant response rating” value ([14]; Preemergence, Rate 500 g/ha) was 0 and the “Sugarbeets plant response rating” value ([14]; Rate 62 g/ha, Postemergence) was 0. For the same compound, the “Plant response rating, Sugarbeets” value [14, 23] was 0, the “Plant response rating, Crabgrass” value [15, 17] was 0 and the “Plant response rating, Crabgrass” value [15, 18] was 4. For the same compound, the “Crabgrass plant response rating (0 to 10 scale)” value ([15]; Preemergence, Rate 125 g/ha) was 6, the “Crabgrass plant response rating” value ([15]; Preemergence, Rate 250 g/ha) was 9 and the “Crabgrass plant response rating” value ([15]; Preemergence, Rate 500 g/ha) was 9. The “Crabgrass plant response rating” value ([15]; Rate 62 g/ha, Postemergence) was 0, the “Plant response rating, Crabgrass” value [15, 23] was 3 and the “Plant response rating, S. Flatsedge” value [16, 24] was 4. For the same compound, the “S. Flatsedge plant response rating” value [16, 25] was 0.
